Measured values: patent publication US20040162263A1, “Pharmaceutical formulations targeting specific regions of the gastrointesinal tract” (priority 2002, published 2004)

Assay: Pharmacokinetics of 9-nitro-camptothecin (9NC) in IVAP beagle dog model
Type: in vivo, beagle dogs
Description: Blood samples were taken systemic and from the portal vein through a sampling/delivery vascular port previously implanted, then plasma was separated by centrifugation and kept frozen at −80° C. until analysis.
The samples were analyzed in a Perkin Elmer liquid chromatography-tandem mass spectrometer system with a PE LC-200 Micro pump, a PE200 Autosampler and a PE Sciex API 365 mass spectrometry unit.
Adult male beagle dogs (between the ages of 1 and 5 years and weighed between 9 and 16 kg) were obtained from Summit Ridge Farms, Susquehanna, Pa. The IVAP dogs were prepared by using a protocol similar to the one used for pentostatin experiments described above.
On the morning of the test, each animal is weighed and placed in the sling. An IV catheter is installed in the brachial vein for systemic blood sampling with a multiuse vacutainer needle adapter. This is flushed with heparinized saline (50 units/ml) to maintain potency between sampling. When necessary, a 20 g or 22 g right-angled Huber infusion set would be placed in the PV port and attached to a three-way stopcock for PV blood sampling.
The preparation of the dose depends on the route of study. In case of IV and PV administration, the drug was dissolved in dimethylacetamide (DMA) at 5 mg/ml and 0.5 ml of the DMA concentrate filtered through a […] filter into 4.5 ml of diluent (51% PEG-400 49% 0.001 M H3PO4) prior to administration to the brachial or portal vein. In the case of all other infusions, as well as oral administration, the drug was dissolved in vegetable oil to a concentration of 1 mg/ml and drawn up into dosing syringes. Animals were dosed IV at 0.1 and 0.2 mg/kg and 0.2 mg/kg for all the other routes of administration tested.
In intravascular studies, the dose is administered via a second catheter and the entire volume is delivered within 45 seconds.
In portal vein studies, the dose is also administered via an additional catheter over a 30 min time period.
In the case of oral dosages, the dose is delivered to the back of the mouth with an appropriate size syringe and is followed with 5 ml of tap water to assist swallowing and clearance of the dose from the mouth. Capsules were administered similarly by placing them at the back of the mouth and giving around 5 ml of water to facilitate swallowing.
For all other tests, the dosage is infused into the appropriate intestinal port and flushed with 2-3 ml of sterile saline. The dead space volume of the ports and tubing vary slightly between individuals, but are generally less than 0.5 ml total. […]
Systemic blood samples allow the calculation of AUC0-inf after oral capsule administration only and portal vein AUC for all the routes of administration.

[1] = 9-NC 0.2 mg/kg COLON port, 0.17 hr
[2] = 9-NC 0.2 mg/kg ileum port, 0.17 hr
[3] = 9-NC 0.2 mg/kg jejunal port, 0.17 hr
[4] = portal vein samples, 9-NC via COLON port
[5] = portal vein samples, 9-NC via ILEUM port
[6] = portal vein samples, 9-NC via JEJUNUM port
[7] = systemic samples, 9-NC via COLON port
[8] = systemic samples, 9-NC via ILEUM port
[9] = systemic samples, 9-NC via JEJUNUM port

## CC[C@@]1(O)C(=O)OCc2c1cc1n(c2=O)Cc2cc3c([N+](=O)[O-])cccc3nc2-1 [9-NC, 9-nitro-20(S)-camptothecin]
[1]
  Mean plasma concentration, Portal Vein: 0.53 ± 0.05 ng/mL
  Mean plasma concentration, Systemic: 0.117 ng/mL
[2]
  Mean plasma concentration, Portal Vein: 0.44 ± 0.10 ng/mL
  Mean plasma concentration, Systemic: 0.11 ± 0.01 ng/mL
[3]
  Mean plasma concentration, Portal Vein: 0.54 ± 0.22 ng/mL
  Mean plasma concentration, Systemic: BQL
COLON port, 0.5 hr
  Mean plasma concentration, Portal Vein: 0.37 ± 0.12 ng/mL
  Mean plasma concentration, Systemic: 0.1 ng/mL
COLON port, 1 hr
  Mean plasma concentration, Portal Vein: 0.37 ± 0.15 ng/mL
  Mean plasma concentration, Systemic: 0.114 ng/mL
COLON port, 1.5 hr
  Mean plasma concentration, Systemic: BQL
COLON port, 2 hr
  Mean plasma concentration, Portal Vein: 0.16 ± 0.05 ng/mL
  Mean plasma concentration, Systemic: 0.134 ng/mL
COLON port, 4 hr
  Mean plasma concentration, Systemic: BQL
COLON port, 6 hr
  Mean plasma concentration, Systemic: BQL
COLON port, 8 hr
  Mean plasma concentration, Systemic: BQL
COLON port, 12 hr
  Mean plasma concentration, Systemic: BQL
COLON port, 24 hr
  Mean plasma concentration, Systemic: 0.11 ng/mL
IV 0.1 mg/kg
  clearance: 29.3 ± 3.17 mL/min/kg
IV 0.1 mg/kg, systemic
  half-life: 0.88 ± 0.45 h
IV 0.2 mg/kg
  clearance: 28.8 ± 13 mL/min/kg
Intracolon
  Bioavailability (high iv dose): 0.1 ± 0.1%
  Bioavailability (low iv dose): 0.1 ± 0.1%
  Bioavailability, Average: 0.1%
Intracolon 0.2 mg/kg
  Mean AUC0-inf of 9-NC, Portal Vein AUC: 1.48 ± 0.29 ng·h/mL
  Mean AUC0-inf of 9-NC, Systemic AUC: 0.07 ± 0.06 ng·h/mL
Intraileum
  Bioavailability (high iv dose): 1.6 ± 1.1%
  Bioavailability (low iv dose): 1.6 ± 1.2%
  Bioavailability, Average: 1.6%
Intraileum 0.2 mg/kg
  Mean AUC0-inf of 9-NC, Portal Vein AUC: 1.76 ± 0.95 ng·h/mL
  Mean AUC0-inf of 9-NC, Systemic AUC: 1.65 ± 1.15 ng·h/mL
Intrajejunal
  Bioavailability (high iv dose): 3.0 ± 3.2%
  Bioavailability (low iv dose): 3.0 ± 3.2%
  Bioavailability, Average: 3.2%
Intrajejunal 0.2 mg/kg
  Mean AUC0-inf of 9-NC, Portal Vein AUC: 4.46 ± 4.00 ng·h/mL
  Mean AUC0-inf of 9-NC, Systemic AUC: 1.03 ± 1.34 ng·h/mL
Intravenous - High (0.2 mg/kg)
  Mean AUC0-inf of 9-NC, Portal Vein AUC: 93.61 ± 17.02 ng·h/mL
  Mean AUC0-inf of 9-NC, Systemic AUC: 118.33 ± 21.82 ng·h/mL
Intravenous - Low (0.1 mg/kg)
  Mean AUC0-inf of 9-NC, Portal Vein AUC: 45.05 ± 4.08 ng·h/mL
  Mean AUC0-inf of 9-NC, Systemic AUC: 57.25 ± 5.84 ng·h/mL
Oral - capsule
  Bioavailability (high iv dose): 4.1 ± 3.8%
  Bioavailability (low iv dose): 4.2 ± 4.0%
  Bioavailability, Average: 4.1%
Oral - capsule 0.2 mg/kg
  Mean AUC0-inf of 9-NC, Portal Vein AUC: 11.48 ± 1.50 ng·h/mL
  Mean AUC0-inf of 9-NC, Systemic AUC: 4.75 ± 4.61 ng·h/mL
Oral - suspension
  Bioavailability (high iv dose): 0.4 ± 0.6%
  Bioavailability (low iv dose): 0.4 ± 0.6%
  Bioavailability, Average: 0.4%
Oral - suspension 0.2 mg/kg
  Mean AUC0-inf of 9-NC, Portal Vein AUC: 11.97 ± 9.88 ng·h/mL
  Mean AUC0-inf of 9-NC, Systemic AUC: 0.48 ± 0.53 ng·h/mL
Portal vein
  Bioavailability (high iv dose): 5.2 ± 0.8%
  Bioavailability (low iv dose): 5.4 ± 1.4%
Portal vein infusion 0.2 mg/kg
  Mean AUC0-inf of 9-NC, Systemic AUC: 6.24 ± 2.11 ng·h/mL
Ileum port, 0.5 hr
  Mean plasma concentration, Portal Vein: 0.56 ± 0.32 ng/mL
  Mean plasma concentration, Systemic: 0.12 ng/mL
Ileum port, 1 hr
  Mean plasma concentration, Portal Vein: 0.22 ± 0.03 ng/mL
  Mean plasma concentration, Systemic: BQL
Ileum port, 1.5 hr
  Mean plasma concentration, Portal Vein: 0.34 ± 0.29 ng/mL
  Mean plasma concentration, Systemic: 0.13 ± 0.04 ng/mL
Ileum port, 2 hr
  Mean plasma concentration, Portal Vein: 0.13 ± 0.02 ng/mL
  Mean plasma concentration, Systemic: 0.10 ± 0.00 ng/mL
Ileum port, 3 hr
  Mean plasma concentration, Portal Vein: 0.12 ± 0.00 ng/mL
  Mean plasma concentration, Systemic: 0.17 ng/mL
Ileum port, 4 hr
  Mean plasma concentration, Portal Vein: BQL
  Mean plasma concentration, Systemic: 0.13 ng/mL
Ileum port, 6 hr
  Mean plasma concentration, Portal Vein: 0.10 ng/mL
  Mean plasma concentration, Systemic: BQL
Ileum port, 8 hr
  Mean plasma concentration, Systemic: 0.14 ng/mL
Ileum port, 12 hr
  Mean plasma concentration, Systemic: 0.14 ± 0.02 ng/mL
Ileum port, 24 hr
  Mean plasma concentration, Systemic: 0.13 ng/mL
Jejunal port, 0.5 hr
  Mean plasma concentration, Portal Vein: 0.41 ± 0.00 ng/mL
  Mean plasma concentration, Systemic: 0.14 ng/mL
Jejunal port, 1 hr
  Mean plasma concentration, Portal Vein: 0.56 ± 0.47 ng/mL
  Mean plasma concentration, Systemic: 0.15 ng/mL
Jejunal port, 2 hr
  Mean plasma concentration, Portal Vein: 0.37 ± 0.10 ng/mL
  Mean plasma concentration, Systemic: 0.14 ng/mL
Jejunal port, 3 hr
  Mean plasma concentration, Portal Vein: 0.41 ng/mL
  Mean plasma concentration, Systemic: 0.15 ng/mL
Jejunal port, 4 hr
  Mean plasma concentration, Portal Vein: BLOQ
  Mean plasma concentration, Systemic: BQL
Jejunal port, 6 hr
  Mean plasma concentration, Portal Vein: BLOQ
  Mean plasma concentration, Systemic: BQL
Jejunal port, 8 hr
  Mean plasma concentration, Portal Vein: BLOQ
  Mean plasma concentration, Systemic: 1.36 ± 1.73 ng/mL
Jejunal port, 10 hr
  Mean plasma concentration, Systemic: BQL
Jejunal port, 12 hr
  Mean plasma concentration, Portal Vein: 0.15 ng/mL
  Mean plasma concentration, Systemic: BQL
Jejunal port, 24 hr
  Mean plasma concentration, Portal Vein: BLOQ
  Mean plasma concentration, Systemic: BQL
Portal vein samples, 0.2 mg/kg 9-NC via COLON port
  AUC0-INF: 1.48 ± 0.29 ng·h/mL
Portal vein samples, 0.2 mg/kg 9-NC via ILEUM port
  AUC0-INF: 1.76 ± 0.95 ng·h/mL
Portal vein samples, 0.2 mg/kg 9-NC via JEJUNUM port
  AUC0-INF: 4.46 ± 4.00 ng·h/mL
[4]
  AUCLast: 0.73 ± 0.63 ng·h/mL
  CMAX: 0.79 ± 0.61 ng/mL
  MRT: 2.21 ± 1.46 h
  TMAX: 1.67 ± 0.29 h
[5]
  AUCLast: 0.87 ± 0.11 ng·h/mL
  CMAX: 0.65 ± 0.20 ng/mL
  MRT: 8.65 ± 1.62 h
  T1/2: 6.10 ± 7.50 h
  TMAX: 0.34 ± 0.23 h
[6]
  AUCLast: 0.85 ± 0.55 ng·h/mL
  CMAX: 0.66 ± 0.24 ng/mL
  MRT: 15.12 ± 1.62 h
  T1/2: 7.59 ± 3.14 h
  TMAX: 0.56 ± 0.42 h
Systemic samples, 0.2 mg/kg 9-NC via JEJUNUM port
  AUC0-INF: 6.66 ng·h/mL
[7]
  AUCLast: 0.07 ± 0.06 ng·h/mL
  CMAX: 0.08 ± 0.07 ng/mL
  F: 0.1 ± 0.1%
  TMAX: 0.72 ± 1.11 h
[8]
  AUCLast: 1.65 ± 1.15 ng·h/mL
  CMAX: 0.17 ± 0.01 ng/mL
  Cl/F: 85.5 mL/min/kg
  F: 1.6 ± 1.2%
  TMAX: 2.25 ± 1.06 h
  Vz: 1441 L/kg
[9]
  AUCLast: 1.03 ± 1.34 ng·h/mL
  CMAX: 0.96 ± 1.40 ng/mL
  Cl/F: 500 mL/min/kg
  F: 3.0 ± 3.2%
  MRT: 54.11 h
  TMAX: 4.00 ± 3.61 h
  Vz: 1469 L/kg
